Source: PubChem BioAssay (NCI)
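Interpolation was linear, between the two tested concentrations surrounding the appropriate level; five concentrations were tested over 48 hours in 96-well plates. TGI marks complete inhibition of growth.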

Key:
Assay in all cases: growth of human tumour cells (NCI), 48 h
M14 melanoma = test system: M14 melanoma
RXF 393 renal = test system: RXF 393 renal
OVCAR-5 ovarian = test system: OVCAR-5 ovarian
SR leukemia = test system: SR leukemia
ACHN renal = test system: ACHN renal
UO-31 renal = test system: UO-31 renal
MDA-MB-231 breast = test system: MDA-MB-231 breast
EKVX NSCLC = test system: EKVX NSCLC
KM12 colon = test system: KM12 colon
MDA-MB-435 = test system: MDA-MB-435
UACC-62 melanoma = test system: UACC-62 melanoma
IGROV1 ovarian = test system: IGROV1 ovarian
NCI/ADR-RES ovarian = test system: NCI/ADR-RES ovarian
SNB-75 CNS = test system: SNB-75 CNS
SNB-19 CNS = test system: SNB-19 CNS
COLO 205 colon = test system: COLO 205 colon
SW-620 colon = test system: SW-620 colon
SF-539 CNS = test system: SF-539 CNS
OVCAR-3 ovarian = test system: OVCAR-3 ovarian
A549 NSCLC = test system: A549 NSCLC
HL-60(TB) leukemia = test system: HL-60(TB) leukemia
CCRF-CEM leukemia = test system: CCRF-CEM leukemia
HS 578T breast = test system: HS 578T breast
SN12C renal = test system: SN12C renal
TK-10 renal = test system: TK-10 renal
SK-MEL-2 melanoma = test system: SK-MEL-2 melanoma
NCI-H460 lung = test system: NCI-H460 lung
786-0 renal = test system: 786-0 renal
HT29 colon = test system: HT29 colon
HCT-15 colon = test system: HCT-15 colon
MDA-N = test system: MDA-N
U251 CNS = test system: U251 CNS
NCI-H522 lung = test system: NCI-H522 lung
NCI-H23 lung = test system: NCI-H23 lung
HCT-116 colon = test system: HCT-116 colon
DU-145 prostate = test system: DU-145 prostate
RPMI-8226 leukemia = test system: RPMI-8226 leukemia
SF-295 CNS = test system: SF-295 CNS
CAKI-1 renal = test system: CAKI-1 renal
K-562 leukemia = test system: K-562 leukemia
T-47D breast = test system: T-47D breast
SK-MEL-5 melanoma = test system: SK-MEL-5 melanoma
SF-268 CNS = test system: SF-268 CNS
HOP-62 NSCLC = test system: HOP-62 NSCLC
PC-3 prostate = test system: PC-3 prostate
SK-OV-3 ovarian = test system: SK-OV-3 ovarian
HCC-2998 colon = test system: HCC-2998 colon
MCF7 breast = test system: MCF7 breast
OVCAR-4 ovarian = test system: OVCAR-4 ovarian
MALME-3M melanoma = test system: MALME-3M melanoma
SK-MEL-28 melanoma = test system: SK-MEL-28 melanoma
NCI-H226 lung = test system: NCI-H226 lung
MOLT-4 leukemia = test system: MOLT-4 leukemia
A498 renal = test system: A498 renal
LOX IMVI melanoma = test system: LOX IMVI melanoma
HOP-92 NSCLC = test system: HOP-92 NSCLC
UACC-257 melanoma = test system: UACC-257 melanoma
OVCAR-8 ovarian = test system: OVCAR-8 ovarian

Measured: TGI

COc1cc([N+](=O)[O-])c(S(=O)(=O)O)cc1-[n+]1nc(C(=O)Nc2ccccc2)nn1-c1ccc([N+](=O)[O-])c(S(=O)(=O)[O-])c1
not listed: A498 renal | LOX IMVI melanoma | HOP-92 NSCLC | UACC-257 melanoma | OVCAR-8 ovarian
> 100 µM: all other assays above

C/C(=C\C(=O)O)C(=O)N(C)c1ccccc1I
not listed: IGROV1 ovarian | SF-539 CNS | HL-60(TB) leukemia | TK-10 renal | HT29 colon | NCI-H522 lung
> 100 µM: all other assays above
